Legend:
[1] = Non-aggregation of diclofenac free acid in dispersion (Malvern laser particle size analyzer); assay type: physicochemical
Procedure: For example, the edible film of Example 2 completely disintegrates within 15 seconds. • (b) Plasma levels of diclofenac: The plasma levels of diclofenac are measured in vivo, e.g. in pigs, at different time intervals after oral administration of the edible films. Edible films according to the invention may produce similar plasma levels of diclofenac as a commercially available tablet comprising 12.5 mg diclofenac potassium (Voltaren® Dolo) [AUC (=Area Under the Curve) is essentially the same]. Tmax may be even shorter in edible films than in Voltaren® Dolo—what is desirable in many cases. • (c) Consumer testing of the organoleptic properties of the edible films: The perception of the edible films immediately after administration is tested. An immediate softening and pleasant feeling in the mouth are realized. • (d) Taste evaluation of the edible films: The taste of the edible films is evaluated in vitro with the aid of an “electronic tongue” equipment and also in consumer tests. […] For example, the particle size of—non-micronized or micronized—diclofenac free acid is measured with the aid of a Malvern (UK) laser particle size analyzer equipment before and after processing, under different conditions of manufacture, to an edible film.

[2] = in water and ethanol/water mixtures; cited from earlier work

particle size distribution profile, starting material versus released from edible films ([1]; before and after processing to an edible film (with ethanol, without ethanol, without ethanol with homogenization), disintegrated in water): essentially is no difference
aggregation in dispersion ([1]; non-micronized (mean particle size 16 micrometers) or micronized, solvents e.g. water, water/ethanol or ethanol): no such aggregation does occur
SMILES: O=C(O)Cc1ccccc1Nc1c(Cl)cccc1Cl [diclofenac free acid]
solubility [2]: only poorly soluble

From patent US8911769B2, “Orally disintegrating pharmaceutical composition comprising diclofenac” (Novartis AG, priority 2004, dated 2014)
